Assay [1] in a line: Antiproliferative activity against human WM3629 cells by MTT/CellTiter 96 assay. Format: functional.
Assay [2] is described as follows: Antiproliferative activity against human A375P cells by MTT assay. Format: functional.
Assay [3] concerns the target T1, RAF proto-oncogene serine/threonine-protein kinase (Homo sapiens, UniProt P04049). To be noted: 10 uM.
Description: Inhibition of human RAF1 at 10 uM
The target of assay [4] is Glycogen synthase kinase-3 beta (Homo sapiens) (UniProt P49841). Description: Inhibition of human GSK3beta at 10 uM.
The target of assay [5] is Hepatocyte growth factor receptor (Homo sapiens) (UniProt P08581). As to the kind of experiment: Inhibition of human cMET at 10 uM.
Assay [6] has as its target Insulin-like growth factor 1 receptor (Homo sapiens) (UniProt P08069). As to the kind of experiment: Inhibition of human IGF1R at 10 uM.
Assay [7] has as its target Vascular endothelial growth factor receptor 2 (Homo sapiens) (UniProt P35968). As to the kind of experiment: Inhibition of human KDR at 10 uM.
The target in assay [8] is Tyrosine-protein kinase Lck (Homo sapiens) (UniProt P06239). As to the kind of experiment: Inhibition of human LCK at 10 uM.
Assay [9] concerns the target Macrophage-stimulating protein receptor (Homo sapiens) (UniProt Q04912). As to the kind of experiment: Inhibition of human RON at 10 uM.
For assay [10], the target named is Proto-oncogene tyrosine-protein kinase Src (Homo sapiens) (UniProt P12931). Description: Inhibition of human cSRC at 10 uM.
The target in assay [11] is Macrophage colony-stimulating factor 1 receptor (Homo sapiens) (UniProt P07333). Description: Inhibition of human FMS at 10 uM.
For assay [12], the target named is Mast/stem cell growth factor receptor Kit (Homo sapiens) (UniProt P10721). Description: Inhibition of human cKIT at 10 uM.
Assay [13] deals with Serine/threonine-protein kinase B-raf (Homo sapiens, UniProt P15056, V600E). As to the kind of experiment: Inhibition of BRAF V599E mutant (unknown origin).
Assay [14] addresses Cyclin-dependent kinase 2/cyclin E1 (Homo sapiens) (UniProt P24864+P24941). As to the kind of experiment: Inhibition of human CDK2/cyclin E at 10 uM. The assay is classed as protein-complex assay.
The target of assay [15] is Tyrosine-protein kinase SYK (Homo sapiens) (UniProt P43405). As to the kind of experiment: Inhibition of human SYK at 10 uM.
Assay [16] concerns Serine/threonine-protein kinase B-raf (Homo sapiens), P15056 [V600E]. To be noted: 10 uM.
Description: Inhibition of human BRAF V599E mutant at 10 uM
Assay [17] has as its target Mitogen-activated protein kinase 14 (Homo sapiens) (UniProt Q16539). As to the kind of experiment: Inhibition of human MAPK14 at 10 uM.
Assay [18] concerns the target T2, Serine/threonine-protein kinase B-raf (Homo sapiens, UniProt P15056). The following applies: 10 uM.
Description: Inhibition of human BRAF at 10 uM
The target in assay [19] is ALK tyrosine kinase receptor (Homo sapiens) (UniProt Q9UM73). As to the kind of experiment: Inhibition of human ALK at 10 uM.
Assay [20] addresses Dual specificity mitogen-activated protein kinase kinase 1 (Homo sapiens) (UniProt Q02750). Description: Inhibition of human MEK1 at 10 uM.
The species entered for assay [21] is Homo sapiens. Description: Inhibition of human PKA at 10 uM.
Assay [22] deals with Cyclin-dependent kinase 1/cyclin B1 (Homo sapiens) (UniProt P06493+P14635). As to the kind of experiment: Inhibition of human CDK1/cyclin B at 10 uM. Format: protein-complex assay.
Assay [23] addresses Serine/threonine-protein kinase PLK1 (Homo sapiens) (UniProt P53350). As to the kind of experiment: Inhibition of human PLK1 at 10 uM.
In assay [24] the target is Epidermal growth factor receptor (Homo sapiens) (UniProt P00533). Description: Inhibition of human EGFR at 10 uM.
Assay [25] addresses Serine/threonine-protein kinase mTOR (Homo sapiens) (UniProt P42345). Description: Inhibition of human mTOR at 10 uM.
The target of assay [26] is Fibroblast growth factor receptor 3 (Homo sapiens) (UniProt P22607). Description: Inhibition of human FGFR3 at 10 uM.
Assay [27] deals with Fibroblast growth factor receptor 2 (Homo sapiens) (UniProt P21802). Description: Inhibition of human FGFR2 at 10 uM.
Assay [28] has as its target Tyrosine-protein kinase Lyn (Homo sapiens) (UniProt P07948). Description: Inhibition of human LYN at 10 uM.
The target in assay [29] is Tyrosine-protein kinase JAK3 (Homo sapiens) (UniProt P52333). As to the kind of experiment: Inhibition of human JAK3 at 10 uM.
The nature of assay [30]: Selectivity ratio of GI50 for human A375P cells to GI50 for human WM3629 cells. The assay is classed as functional.
The target of assay [31] is Aurora kinase A (Homo sapiens) (UniProt O14965). Description: Inhibition of human Aurora A at 10 uM.
The target of assay [32] is Focal adhesion kinase 1 (Homo sapiens) (UniProt Q05397). As to the kind of experiment: Inhibition of human FAK at 10 uM.
Assay [33] deals with Receptor-type tyrosine-protein kinase FLT3 (Homo sapiens) (UniProt P36888). As to the kind of experiment: Inhibition of human FLT3 at 10 uM.
The target of assay [34] is RAC-alpha serine/threonine-protein kinase (Homo sapiens) (UniProt P31749). Description: Inhibition of human AKT1 at 10 uM.
Assay [35] concerns the target Proto-oncogene tyrosine-protein kinase ROS (Homo sapiens) (UniProt P08922). Description: Inhibition of human ROS1 at 10 uM.
In assay [36] the target is Mitogen-activated protein kinase 3 (Homo sapiens) (UniProt P27361). As to the kind of experiment: Inhibition of human ERK1 at 10 uM.
The target in assay [37] is Tyrosine-protein kinase ABL1 (Homo sapiens) (UniProt P00519). Description: Inhibition of human ABL1 at 10 uM.
Assay [38] concerns the target T1, RAF proto-oncogene serine/threonine-protein kinase. As to the kind of experiment: Inhibition of CRAF (unknown origin).
Assay [39] deals with T2, Serine/threonine-protein kinase B-raf. Description: Inhibition of BRAF (unknown origin).
Assay [40] has as its target Mitogen-activated protein kinase 10 (Homo sapiens) (UniProt P53779). Description: Inhibition of human JNK3 at 10 uM.

Structures are written as SMILES.

T1 sequence (P04049 whole entry): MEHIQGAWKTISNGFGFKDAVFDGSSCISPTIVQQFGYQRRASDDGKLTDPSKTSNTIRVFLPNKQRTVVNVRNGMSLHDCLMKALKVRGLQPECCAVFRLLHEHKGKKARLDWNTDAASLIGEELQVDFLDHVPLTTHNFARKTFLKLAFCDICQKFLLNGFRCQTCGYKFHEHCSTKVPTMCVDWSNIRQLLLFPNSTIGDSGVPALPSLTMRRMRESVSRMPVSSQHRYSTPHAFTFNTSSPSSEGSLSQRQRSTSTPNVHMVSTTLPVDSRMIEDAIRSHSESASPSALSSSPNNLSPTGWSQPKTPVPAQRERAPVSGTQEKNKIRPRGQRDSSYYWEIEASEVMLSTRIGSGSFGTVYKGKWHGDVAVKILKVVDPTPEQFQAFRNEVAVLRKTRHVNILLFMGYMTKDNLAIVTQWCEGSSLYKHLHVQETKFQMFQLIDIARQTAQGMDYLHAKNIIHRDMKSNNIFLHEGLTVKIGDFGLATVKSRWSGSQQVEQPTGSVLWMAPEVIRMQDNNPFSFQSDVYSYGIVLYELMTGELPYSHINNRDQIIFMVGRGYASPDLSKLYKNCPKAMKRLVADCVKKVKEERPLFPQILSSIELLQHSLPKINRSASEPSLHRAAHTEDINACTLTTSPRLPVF
T2 sequence (P15056 whole entry): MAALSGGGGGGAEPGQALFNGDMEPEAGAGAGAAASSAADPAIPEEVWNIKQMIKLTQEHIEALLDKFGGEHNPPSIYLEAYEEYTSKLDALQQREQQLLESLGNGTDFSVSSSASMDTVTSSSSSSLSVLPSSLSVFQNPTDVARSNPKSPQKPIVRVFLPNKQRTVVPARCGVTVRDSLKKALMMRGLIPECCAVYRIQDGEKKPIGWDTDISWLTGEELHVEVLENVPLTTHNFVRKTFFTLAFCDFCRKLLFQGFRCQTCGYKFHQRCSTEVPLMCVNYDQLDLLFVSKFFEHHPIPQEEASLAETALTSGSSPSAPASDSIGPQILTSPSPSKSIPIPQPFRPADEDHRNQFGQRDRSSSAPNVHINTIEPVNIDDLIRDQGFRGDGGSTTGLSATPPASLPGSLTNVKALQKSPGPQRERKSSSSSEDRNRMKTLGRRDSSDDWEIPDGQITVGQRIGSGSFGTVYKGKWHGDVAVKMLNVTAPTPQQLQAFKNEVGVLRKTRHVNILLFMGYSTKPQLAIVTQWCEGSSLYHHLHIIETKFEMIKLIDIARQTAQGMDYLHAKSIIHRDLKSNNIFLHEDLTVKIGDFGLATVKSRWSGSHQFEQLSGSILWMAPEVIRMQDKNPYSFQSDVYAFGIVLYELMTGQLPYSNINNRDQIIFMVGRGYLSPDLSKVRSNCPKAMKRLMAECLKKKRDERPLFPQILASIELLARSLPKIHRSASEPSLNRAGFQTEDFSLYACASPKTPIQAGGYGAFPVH
Sequence of Fibroblast growth factor receptor 3 (Homo sapiens) (P22607 23-806 limits assumed): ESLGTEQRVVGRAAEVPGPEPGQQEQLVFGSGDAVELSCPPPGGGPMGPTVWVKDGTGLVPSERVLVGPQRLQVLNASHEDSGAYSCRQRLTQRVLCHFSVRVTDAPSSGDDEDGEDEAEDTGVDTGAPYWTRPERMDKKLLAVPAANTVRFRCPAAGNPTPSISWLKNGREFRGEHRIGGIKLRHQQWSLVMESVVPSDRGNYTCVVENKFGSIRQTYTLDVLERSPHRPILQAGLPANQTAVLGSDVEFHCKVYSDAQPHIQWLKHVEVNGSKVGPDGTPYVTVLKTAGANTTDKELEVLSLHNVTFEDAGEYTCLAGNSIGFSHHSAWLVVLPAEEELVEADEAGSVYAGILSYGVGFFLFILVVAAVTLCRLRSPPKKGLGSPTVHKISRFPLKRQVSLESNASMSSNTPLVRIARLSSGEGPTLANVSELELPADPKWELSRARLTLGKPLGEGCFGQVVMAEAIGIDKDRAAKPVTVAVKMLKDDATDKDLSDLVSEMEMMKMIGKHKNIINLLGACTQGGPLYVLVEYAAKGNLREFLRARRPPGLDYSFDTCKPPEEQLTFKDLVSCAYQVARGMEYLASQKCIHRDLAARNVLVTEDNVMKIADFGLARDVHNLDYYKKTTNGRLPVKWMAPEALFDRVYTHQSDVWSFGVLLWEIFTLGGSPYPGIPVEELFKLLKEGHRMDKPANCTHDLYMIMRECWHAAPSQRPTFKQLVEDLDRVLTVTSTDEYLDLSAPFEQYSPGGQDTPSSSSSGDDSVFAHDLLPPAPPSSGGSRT
Sequence of Mast/stem cell growth factor receptor Kit (Homo sapiens) (P10721 whole entry): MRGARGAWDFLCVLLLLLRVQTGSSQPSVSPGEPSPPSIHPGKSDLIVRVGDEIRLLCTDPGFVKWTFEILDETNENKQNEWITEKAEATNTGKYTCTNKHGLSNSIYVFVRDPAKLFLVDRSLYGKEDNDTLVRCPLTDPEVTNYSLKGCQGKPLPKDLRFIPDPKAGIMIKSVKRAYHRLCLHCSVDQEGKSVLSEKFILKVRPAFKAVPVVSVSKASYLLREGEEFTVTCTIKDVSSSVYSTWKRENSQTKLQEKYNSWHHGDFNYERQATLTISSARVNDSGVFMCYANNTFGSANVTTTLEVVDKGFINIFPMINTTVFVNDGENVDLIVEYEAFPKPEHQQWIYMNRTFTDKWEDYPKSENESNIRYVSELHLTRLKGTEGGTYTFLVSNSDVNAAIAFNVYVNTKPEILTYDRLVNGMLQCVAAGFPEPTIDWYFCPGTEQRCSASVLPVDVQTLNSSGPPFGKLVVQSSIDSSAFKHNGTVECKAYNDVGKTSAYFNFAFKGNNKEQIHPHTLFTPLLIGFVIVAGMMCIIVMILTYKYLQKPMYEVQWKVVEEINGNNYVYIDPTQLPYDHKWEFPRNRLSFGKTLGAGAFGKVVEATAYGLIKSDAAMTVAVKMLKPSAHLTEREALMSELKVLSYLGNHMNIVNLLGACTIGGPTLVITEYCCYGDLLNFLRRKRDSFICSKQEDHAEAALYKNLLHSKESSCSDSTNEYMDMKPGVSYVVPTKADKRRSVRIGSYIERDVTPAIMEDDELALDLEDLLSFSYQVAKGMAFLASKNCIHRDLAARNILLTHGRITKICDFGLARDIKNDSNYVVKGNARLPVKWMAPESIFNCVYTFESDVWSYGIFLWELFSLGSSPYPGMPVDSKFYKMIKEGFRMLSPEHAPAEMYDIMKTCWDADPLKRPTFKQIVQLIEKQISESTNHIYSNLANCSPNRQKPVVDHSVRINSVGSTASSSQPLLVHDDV
Sequence of Serine/threonine-protein kinase B-raf (Homo sapiens), P15056 [V600E] (P15056 whole entry V600E): as the sequence (P15056 whole entry) above, with V600E counted along it
Sequence of Tyrosine-protein kinase ABL1 (Homo sapiens) (P00519 whole entry): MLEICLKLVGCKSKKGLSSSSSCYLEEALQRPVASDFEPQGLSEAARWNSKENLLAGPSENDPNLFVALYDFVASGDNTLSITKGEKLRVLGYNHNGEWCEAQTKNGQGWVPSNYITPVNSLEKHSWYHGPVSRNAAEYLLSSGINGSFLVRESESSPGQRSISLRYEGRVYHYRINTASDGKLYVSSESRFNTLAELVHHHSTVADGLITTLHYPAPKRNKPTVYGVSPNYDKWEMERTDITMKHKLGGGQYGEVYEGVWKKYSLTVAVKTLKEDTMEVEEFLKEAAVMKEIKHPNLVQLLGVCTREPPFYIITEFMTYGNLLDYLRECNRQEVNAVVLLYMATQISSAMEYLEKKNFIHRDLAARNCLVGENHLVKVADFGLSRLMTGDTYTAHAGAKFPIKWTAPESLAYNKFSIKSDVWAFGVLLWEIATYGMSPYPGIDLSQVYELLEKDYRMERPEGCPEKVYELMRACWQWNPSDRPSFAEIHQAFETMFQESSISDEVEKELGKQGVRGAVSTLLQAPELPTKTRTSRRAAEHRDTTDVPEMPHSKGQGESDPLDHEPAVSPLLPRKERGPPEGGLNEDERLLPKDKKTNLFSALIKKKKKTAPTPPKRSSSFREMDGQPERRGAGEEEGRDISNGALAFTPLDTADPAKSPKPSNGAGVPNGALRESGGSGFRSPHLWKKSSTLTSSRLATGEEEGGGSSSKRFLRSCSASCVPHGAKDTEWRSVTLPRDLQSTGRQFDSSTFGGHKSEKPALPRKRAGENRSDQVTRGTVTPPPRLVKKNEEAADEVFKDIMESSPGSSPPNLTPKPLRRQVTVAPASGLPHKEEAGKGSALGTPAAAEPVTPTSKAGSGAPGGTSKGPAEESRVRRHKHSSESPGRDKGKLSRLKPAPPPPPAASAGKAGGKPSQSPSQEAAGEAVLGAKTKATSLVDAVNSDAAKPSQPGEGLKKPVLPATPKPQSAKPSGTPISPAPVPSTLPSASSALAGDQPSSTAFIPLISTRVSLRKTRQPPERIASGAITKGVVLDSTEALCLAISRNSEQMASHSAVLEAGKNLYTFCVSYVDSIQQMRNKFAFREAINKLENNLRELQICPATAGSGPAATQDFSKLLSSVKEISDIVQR
Sequence of Glycogen synthase kinase-3 beta (Homo sapiens) (P49841 whole entry, looked up): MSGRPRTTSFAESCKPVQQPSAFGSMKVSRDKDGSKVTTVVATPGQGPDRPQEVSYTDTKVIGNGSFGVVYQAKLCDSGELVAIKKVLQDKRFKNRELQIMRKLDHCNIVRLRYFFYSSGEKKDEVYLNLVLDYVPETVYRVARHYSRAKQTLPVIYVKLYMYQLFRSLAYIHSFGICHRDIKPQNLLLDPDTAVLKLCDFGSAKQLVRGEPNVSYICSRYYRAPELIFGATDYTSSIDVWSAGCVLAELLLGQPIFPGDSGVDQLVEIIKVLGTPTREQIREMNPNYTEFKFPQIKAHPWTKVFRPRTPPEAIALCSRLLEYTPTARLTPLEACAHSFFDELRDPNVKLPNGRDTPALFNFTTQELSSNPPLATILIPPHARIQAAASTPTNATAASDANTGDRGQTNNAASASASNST

One may read the GI50 as the concentration giving 50% growth inhibition. Turning to `C[C@H](NC(=O)c1[nH]nc2cc(NCc3cccc(NC(=O)c4cc(N5CCOCC5)cc(C(F)(F)F)c4)c3)ccc12)C(N)=O`, the GI50 in assay [1] came out at 2.25 µM; in [2] it was 25.6 µM.

Turning to `COc1ccc(-n2ncc(C(=O)Nc3ccc4c(C(=O)N[C@@H](C)C(N)=O)[nH]nc4c3)c2C(F)(F)F)cc1`, the results for the GI50 in assay [1] and in assay [2] were 3.28 µM and 24.6 µM, respectively.

Take `COc1cccc(CNc2ccc3c(C(=O)N[C@@H](C)C(N)=O)[nH]nc3c2)c1`: the results for the GI50 in [1] and in assay [2] were 7.19 µM and 17.8 µM, respectively.

In the case of `CNC(=O)c1cc(Oc2ccc(NC(=O)Nc3ccc(Cl)c(C(F)(F)F)c3)cc2)ccn1` [SORAFENIB], the values for the GI50 in [1] and in assay [2] were 0.78 µM and 2.58 µM, respectively.

With `C[C@H](NC(=O)c1[nH]nc2cc(NCc3cccc(NC(=O)c4ccc(Cl)c(C(F)(F)F)c4)c3)ccc12)C(N)=O`, the results for the GI50 in assay [1] and in [2] were 4.54 µM and 7.19 µM, respectively.

For the compound `C[C@H](NC(=O)c1[nH]nc2cc(NC(=O)c3ccccc3)ccc12)C(N)=O`, the GI50 in assay [1] and in assay [2] was above 30 µM each time.

On to `C[C@H](NC(=O)c1[nH]nc2cc(NC(=O)c3cccc(C(C)(C)C#N)c3)ccc12)C(N)=O`, for which the 50% growth inhibitory concentration (GI50) in assay [1] and in assay [2] was above 30 µM throughout.

`C[C@H](NC(=O)c1[nH]nc2cc(NC(=O)c3cc(N4CCOCC4)cc(C(F)(F)F)c3)ccc12)C(N)=O`: the GI50 in assay [1] and in assay [2] was above 30 µM each time.

One may read the inhibition as how much of the control response was suppressed. Read a low inhibition as little suppression. One may read the IC50 as the point on the concentration scale where inhibition reaches its midpoint. With `Cc1cncn1-c1cc(C(=O)Nc2cccc(CNc3ccc4c(C(=O)N[C@@H](C)C(N)=O)[nH]nc4c3)c2)cc(C(F)(F)F)c1`, the inhibition was found to be 99.4% in assay [3]; 12.3% in [4]; 9.84% in [5]; 0% in assay [6]; 0% in assay [7]; 7.62% in assay [8]. Also, the inhibition in assay [9] was determined as 0.7%; in [10] it was 0%; in [11], 10.6%; in assay [12] it was 22.2%; in assay [14], 3.1%; in [15] it was 2.89%. Besides, the inhibition in [16] was found to be 19.5%; in assay [17], 11.4%; in assay [18], 21.1%; in assay [19], 0%; in assay [20], 0%; in assay [21], 0%. Besides, the inhibition in [22] was found to be 8.36%; in assay [23], 9.04%; in assay [24], 0%; in assay [25], 0%; in [26] it was 14.9%; in assay [27], 9.75%. The inhibition in [28] was 5.4%; in assay [29] it was 0%; in assay [31], 4.99%; in assay [32] it was 8.88%; in assay [33], 1.16%; in assay [34] it was 7.08%. Also, the inhibition was 1.49% in assay [35], 4.2% in assay [36], 2.44% in [37] and 0% in assay [40]. The IC50 in [13] was determined as 7.82 µM; in [38] it was 38.6 µM; in [39] it was 9.45 µM. Also, the GI50 was determined as 0.65 µM in assay [1] and 15.9 µM in assay [2]. In assay [30], the RatioGI50 is reported as 25.

As for `C[C@H](NC(=O)c1[nH]nc2cc(NC(=O)c3ccc(Cl)c(C(F)(F)F)c3)ccc12)C(N)=O`, the values for the GI50 in assay [1] and in [2] were 9.13 µM and 10.5 µM, respectively.

As to `C[C@H](NC(=O)c1[nH]nc2cc(NC(=O)Nc3ccc(Cl)c(C(F)(F)F)c3)ccc12)C(N)=O`, the GI50 in [1] came to 6.59 µM; in assay [2], 8.58 µM.

`C[C@H](NC(=O)c1[nH]nc2cc(NC(=O)C(c3ccccc3)c3ccccc3)ccc12)C(N)=O`: the GI50 in assay [1] and in [2] was above 30 µM each time.

On to `C[C@H](NC(=O)c1[nH]nc2cc(NC(=O)Nc3ccc(C(F)(F)F)c(N4CCOCC4)c3)ccc12)C(N)=O`, for which the GI50 in assay [1] was 3.51 µM; in assay [2] it was 10.1 µM.

`C[C@H](NC(=O)c1[nH]nc2cc(NC(=O)c3ccc(C(F)(F)F)c(N4CCOCC4)c3)ccc12)C(N)=O`: the values for the GI50 in assay [1] and in [2] were 7.37 µM and 28.3 µM, respectively.

As to `C[C@H](NC(=O)c1[nH]nc2cc(NC(=O)c3ccc4ncccc4c3)ccc12)C(N)=O`, the GI50 in [1] and in assay [2] was above 30 µM in each case.

`C[C@H](NC(=O)c1[nH]nc2cc(NCc3ccc(F)cc3)ccc12)C(N)=O`: the values for the GI50 in assay [1] and in assay [2] were 9.05 µM and 10.1 µM, respectively.

Regarding `C[C@H](NC(=O)c1[nH]nc2cc(NC(=O)c3cc4ccccc4s3)ccc12)C(N)=O`, the results for the GI50 in assay [1] and in assay [2] were above 30 µM and 28.2 µM, respectively.

As for `C[C@H](NC(=O)c1[nH]nc2cc(NC(=O)Nc3ccc(N4CCOCC4)cc3)ccc12)C(N)=O`, the GI50 in assay [1] is 9.29 µM; in assay [2] it was 12.3 µM.

With `C[C@H](NC(=O)c1[nH]nc2cc(NC(=O)Nc3cccc(C(F)(F)F)c3)ccc12)C(N)=O`, the GI50 in [1] was found to be 6.43 µM; in assay [2], 8.41 µM.

In the case of `C[C@H](NC(=O)c1[nH]nc2cc(NCc3cccc(NC(=O)c4cccc(C(C)(C)C#N)c4)c3)ccc12)C(N)=O`, the values for the 50% growth inhibitory concentration (GI50) in [1] and in assay [2] were 7.37 µM and 28.3 µM, respectively.

For the compound `C[C@H](NC(=O)c1[nH]nc2cc(NCc3cccc(NC(=O)c4cnccn4)c3)ccc12)C(N)=O`, the GI50 in [1] was 7.86 µM; in assay [2], 19.2 µM.

`COc1ccc(-c2ccc(C(=O)Nc3ccc4c(C(=O)N[C@@H](C)C(N)=O)[nH]nc4c3)o2)cc1`: the GI50 in [1] came out at 7.86 µM; in assay [2] it was 19.2 µM.

With `Cc1cncn1-c1cc(C(=O)Nc2ccc3c(C(=O)N[C@@H](C)C(N)=O)[nH]nc3c2)cc(C(F)(F)F)c1`, the GI50 was 12.9 µM in [1] and 7.19 µM in [2].

As to `C[C@H](NC(=O)c1[nH]nc2cc(NC(=O)c3cccc(C(F)(F)F)c3)ccc12)C(N)=O`, the GI50 in [1] and in assay [2] was above 30 µM throughout.

Values taken from ChEMBL document CHEMBL3763132, “Discovery of highly selective CRAF inhibitors, 3-carboxamido-2H-indazole-6-arylamide: In silico FBLD design, synthesis and evaluation” (Bioorg Med Chem Lett, 2016).
